ChEMBL document CHEMBL5465560, “Selectivity Literature for EUbOPEN Chemogenomic Library” (2024)

Columns and labels:
[1] = target: 5'-AMP-activated protein kinase catalytic subunit alpha-1 (Homo sapiens, UniProt Q13131); assay: Selectivity interaction (Kinase screening (Upstate/Millipore)) EUB0000604a PRKAA1
[2] = target: T1, NUAK family SNF1-like kinase 2 (Homo sapiens) (UniProt Q9H093); assay: Selectivity interaction (Ambit KINOMEscan and KiNATiv profiling in Jurkat cells) EUB0000090b NUAK2; format: cell-based; settings: at 1 µM
T1 sequence (whole entry): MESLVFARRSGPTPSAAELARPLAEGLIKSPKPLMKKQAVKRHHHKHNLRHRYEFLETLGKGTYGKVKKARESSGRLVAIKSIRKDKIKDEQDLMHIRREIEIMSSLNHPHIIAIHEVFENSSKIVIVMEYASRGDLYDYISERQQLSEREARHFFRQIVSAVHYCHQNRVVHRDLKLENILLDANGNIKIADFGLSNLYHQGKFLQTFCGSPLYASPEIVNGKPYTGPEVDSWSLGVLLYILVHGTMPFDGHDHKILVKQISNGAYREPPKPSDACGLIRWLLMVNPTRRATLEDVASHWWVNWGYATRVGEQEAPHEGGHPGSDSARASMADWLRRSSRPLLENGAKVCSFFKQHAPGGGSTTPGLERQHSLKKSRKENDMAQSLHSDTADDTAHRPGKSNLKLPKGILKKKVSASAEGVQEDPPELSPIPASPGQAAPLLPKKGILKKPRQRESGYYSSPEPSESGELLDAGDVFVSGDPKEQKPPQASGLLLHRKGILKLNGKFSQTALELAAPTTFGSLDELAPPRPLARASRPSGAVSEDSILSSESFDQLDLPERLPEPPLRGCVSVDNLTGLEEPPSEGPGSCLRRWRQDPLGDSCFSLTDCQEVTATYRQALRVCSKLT

[3] = target: T2, Inhibitor of nuclear factor kappa-B kinase subunit beta (Homo sapiens) (UniProt O14920); assay: Selectivity interaction (ActivX KiNativ screen (kinase selectivity in THP-1 cell lysates)) EUB0000639a IKBKB; format: subcellular; settings: lysate, at 0.01 µM
T2 sequence (whole entry): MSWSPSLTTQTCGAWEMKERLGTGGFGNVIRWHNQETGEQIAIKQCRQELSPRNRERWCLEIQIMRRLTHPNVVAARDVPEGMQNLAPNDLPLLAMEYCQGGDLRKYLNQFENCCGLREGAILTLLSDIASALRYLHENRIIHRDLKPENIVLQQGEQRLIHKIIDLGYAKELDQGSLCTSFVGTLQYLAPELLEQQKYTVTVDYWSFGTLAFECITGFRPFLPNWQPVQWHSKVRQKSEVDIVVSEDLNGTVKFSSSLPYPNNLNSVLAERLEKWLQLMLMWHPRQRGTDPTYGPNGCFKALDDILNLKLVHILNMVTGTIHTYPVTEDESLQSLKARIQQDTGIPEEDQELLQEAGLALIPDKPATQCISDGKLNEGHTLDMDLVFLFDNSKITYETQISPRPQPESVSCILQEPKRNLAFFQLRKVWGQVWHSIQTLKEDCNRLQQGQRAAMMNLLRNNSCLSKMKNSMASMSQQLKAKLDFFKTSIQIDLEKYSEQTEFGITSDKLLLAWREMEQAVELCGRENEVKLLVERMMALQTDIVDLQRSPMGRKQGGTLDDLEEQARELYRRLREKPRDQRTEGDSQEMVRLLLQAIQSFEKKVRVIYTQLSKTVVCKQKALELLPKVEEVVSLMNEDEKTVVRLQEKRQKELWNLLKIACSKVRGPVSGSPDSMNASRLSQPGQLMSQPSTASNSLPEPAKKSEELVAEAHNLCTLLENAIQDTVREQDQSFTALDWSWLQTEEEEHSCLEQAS

[4] = target: N-lysine methyltransferase SMYD2 (Homo sapiens) (UniProt Q9NRG4); assay: Selectivity interaction (Transferase panel (protein, RNA, and DNA methyltransferases. and EP300 (acetyltransferase))) EUB0000270b SMYD2
[5] = target: T3, Protein kinase C iota type (Homo sapiens) (UniProt P41743); assay: Selectivity interaction (ProQinase) EUB0000171b PRKCI
T3 sequence (whole entry): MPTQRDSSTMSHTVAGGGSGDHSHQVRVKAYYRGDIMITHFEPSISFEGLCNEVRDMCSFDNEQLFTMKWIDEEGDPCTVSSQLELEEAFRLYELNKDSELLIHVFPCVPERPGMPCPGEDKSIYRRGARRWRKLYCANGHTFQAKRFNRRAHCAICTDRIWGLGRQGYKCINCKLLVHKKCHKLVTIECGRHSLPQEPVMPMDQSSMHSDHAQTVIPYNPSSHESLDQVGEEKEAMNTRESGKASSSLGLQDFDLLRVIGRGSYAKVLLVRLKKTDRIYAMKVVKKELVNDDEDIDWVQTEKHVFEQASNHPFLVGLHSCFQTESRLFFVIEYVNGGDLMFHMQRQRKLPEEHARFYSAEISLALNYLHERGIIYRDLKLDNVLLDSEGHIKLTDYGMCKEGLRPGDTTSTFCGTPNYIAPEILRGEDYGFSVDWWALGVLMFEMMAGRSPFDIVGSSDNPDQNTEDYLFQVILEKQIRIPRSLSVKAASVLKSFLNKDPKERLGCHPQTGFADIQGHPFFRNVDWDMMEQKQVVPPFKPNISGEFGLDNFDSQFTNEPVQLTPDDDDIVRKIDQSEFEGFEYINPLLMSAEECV

[6] = target: T4, Serine/threonine-protein kinase BRSK2 (Homo sapiens) (UniProt Q8IWQ3); assay: Selectivity interaction (KinomeScan (DiscoverX)) EUB0000666a BRSK2; settings: at 10 µM
T4 sequence (whole entry): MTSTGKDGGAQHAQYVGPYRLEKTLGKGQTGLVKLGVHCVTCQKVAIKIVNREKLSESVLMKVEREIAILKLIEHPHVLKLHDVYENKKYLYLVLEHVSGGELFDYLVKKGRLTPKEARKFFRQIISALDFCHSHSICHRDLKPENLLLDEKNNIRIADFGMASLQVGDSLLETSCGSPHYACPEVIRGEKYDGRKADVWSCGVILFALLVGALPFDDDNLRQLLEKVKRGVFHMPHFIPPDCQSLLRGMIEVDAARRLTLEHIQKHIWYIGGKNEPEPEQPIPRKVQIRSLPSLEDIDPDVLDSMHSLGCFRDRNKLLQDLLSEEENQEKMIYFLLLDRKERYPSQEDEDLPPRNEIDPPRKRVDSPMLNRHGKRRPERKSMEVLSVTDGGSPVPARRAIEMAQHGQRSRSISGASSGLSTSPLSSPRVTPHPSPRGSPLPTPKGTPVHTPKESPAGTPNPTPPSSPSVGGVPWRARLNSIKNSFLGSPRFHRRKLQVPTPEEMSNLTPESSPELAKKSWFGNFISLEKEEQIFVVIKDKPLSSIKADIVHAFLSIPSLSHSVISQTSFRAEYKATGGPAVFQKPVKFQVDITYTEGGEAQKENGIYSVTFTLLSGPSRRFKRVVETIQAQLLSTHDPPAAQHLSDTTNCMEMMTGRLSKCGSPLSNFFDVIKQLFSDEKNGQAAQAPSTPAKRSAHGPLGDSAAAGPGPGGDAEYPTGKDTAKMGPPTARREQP

Chain of N-lysine methyltransferase SMYD2 (Homo sapiens) (Q9NRG4 whole entry): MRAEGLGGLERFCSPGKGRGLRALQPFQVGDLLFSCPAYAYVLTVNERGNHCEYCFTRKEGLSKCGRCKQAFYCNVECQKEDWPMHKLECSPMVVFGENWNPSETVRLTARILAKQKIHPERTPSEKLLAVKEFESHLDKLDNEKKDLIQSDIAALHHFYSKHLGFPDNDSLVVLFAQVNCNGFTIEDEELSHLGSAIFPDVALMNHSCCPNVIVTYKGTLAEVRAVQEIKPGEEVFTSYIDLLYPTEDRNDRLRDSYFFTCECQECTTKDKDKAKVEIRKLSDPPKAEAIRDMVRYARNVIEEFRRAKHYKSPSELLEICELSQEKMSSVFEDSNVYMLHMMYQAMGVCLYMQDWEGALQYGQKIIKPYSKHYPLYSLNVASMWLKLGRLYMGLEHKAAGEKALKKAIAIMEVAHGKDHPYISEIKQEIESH
Chain of 5'-AMP-activated protein kinase catalytic subunit alpha-1 (Q13131 whole entry, looked up): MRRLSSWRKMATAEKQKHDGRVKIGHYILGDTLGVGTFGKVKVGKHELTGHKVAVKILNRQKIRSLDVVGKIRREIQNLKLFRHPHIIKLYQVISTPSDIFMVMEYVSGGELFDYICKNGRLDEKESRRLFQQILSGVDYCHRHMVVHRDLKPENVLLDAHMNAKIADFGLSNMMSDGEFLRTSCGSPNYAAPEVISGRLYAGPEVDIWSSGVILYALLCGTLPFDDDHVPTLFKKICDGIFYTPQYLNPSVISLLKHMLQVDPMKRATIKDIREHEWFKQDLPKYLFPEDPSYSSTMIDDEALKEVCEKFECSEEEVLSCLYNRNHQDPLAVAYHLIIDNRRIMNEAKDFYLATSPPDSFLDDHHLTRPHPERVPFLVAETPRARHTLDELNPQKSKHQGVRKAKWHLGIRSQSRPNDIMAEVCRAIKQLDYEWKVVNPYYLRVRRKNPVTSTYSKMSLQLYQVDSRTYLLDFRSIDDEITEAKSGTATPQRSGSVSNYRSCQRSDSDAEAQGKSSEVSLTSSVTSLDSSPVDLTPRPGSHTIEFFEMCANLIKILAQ

Cc1cnc(Nc2ccc(F)cc2Cl)nc1-c1c[nH]c(C(=O)N[C@H](CO)c2cccc(Cl)c2)c1
% of inhibition [1]: 5%

CN(C)C/C=C/C(=O)Nc1ccc(C(=O)N2CCCC(Nc3ncc(Cl)c(-c4c[nH]c5ccccc45)n3)C2)cc1 (stereo not drawn)
% of control [2]: 94%

CC[C@@H]1[C@H](F)C(=O)N[C@@H]1COc1nccc2cc(C(N)=O)c(OC)cc12 [ZIMLOVISERTIB]
% of inhibition [3]: -4.2%

Cc1cc(CN)cc(C)c1-c1ncn(C)c1-c1cncn1C
% activity ([4]; at 1 µM): > 90% | % activity ([4]; at 10 µM): > 80%

C=CC(=O)Nc1cccc(C(=O)Nc2ccc(Nc3cc(-c4[nH]c(SC)nc4C)ccn3)cc2)c1
% of control ([5]; at 1 µM): 80% | % of control ([5]; at 5 µM): 52%

O=C(NOC[C@H](O)CO)c1ccc(F)c(F)c1Nc1ccc(I)cc1F
% of control [6]: 100%
